Test results published in patent US20100094001A1, “C[…]-IMPROVED CH[…] DERIVATIVE AND PROCESS FOR PRODUCING SAME” (Eisai R&D Management Co., Ltd., priority 2007, published 2010).

Experiment: Stability experiment for the addition of tri-n-butylamine: sealed storage at 40-50° C., content (purity) by 1H-NMR
Format: physicochemical
Procedure: From the point of view of securing storage stability, for the amount of the first tertiary amine added, at least 2.0 mol % is added based on Compound (6), preferably at least 3.0 mol %, more preferably at least 4.0 mol %, and even more preferably at least 5.0 mol %. Note that evaluation of storage stability can be carried out by calculation of peak area derived from Compound (6) by gas chromatography or high performance liquid chromatography or calculation of integration value by 1H-NMR or P-NMR measurement before and after storage.
Potassium di-tert-butyl phosphate (6 g), dipotassium hydrogenphosphate (16.6 g), tetrabutylammonium hydrogen sulfate (0.81 g), tert-butyl methyl ether (28 mL) and water (21 mL) were added in a 100 mL two-neck round bottom flask equipped with a thermometer, and stirred under cooling with a water bath. At an internal temperature of 21° C., a solution of chloromethyl chlorosulfonate (5.88 g) dissolved in tert-butyl methyl ether (5.88 mL) was added dropwise over two hours at an internal temperature of 25° C. or lower. After termination of the drop wise addition, the solution was stirred for two hours, water (21 mL) and tert-butyl methyl ether (28 mL) were added thereto, the lower layer was separated and the organic layer was washed with an aqueous solution of 2M dipotassium hydrogen phosphate (21 mL). After washing twice with water (21 mL), bath temperature was set to 35° C., and the solution was concentrated under a reduced pressure to obtain 5.38 g of the title compound (yield: 86%). […]
As a result, contents (purity) of respectively 92% and 96% prior to storage were 89% and 70% after sealed storage at 40° C. for 12 hours and further at 50° C. for 12 hours, and were 87% and 0% (completely degraded) after sealed storage further at 50° C. for 10 hours, such that the one added with tri-n-butylamine was stable. The content (purity) was calculated by 1H-NMR measurements with 4-thiomethyl acetophenone as internal standard substance.

CC(C)(C)OP(=O)(OCCl)OC(C)(C)C [Not added, di-tert-butyl chloromethyl phosphate]
Content (%) (Initial (prior to storage)): 96%
Content (%) (Sealed storage at 40° C. for 12 hours then further at 50° C. for 12 hours): 70%
Content (%) (Sealed storage further at 50° C. for 10 hours (after 40° C. 12 hours and 50° C. 12 hours)): 0%
